Measurements reported in patent publication US6254889A, “Solid dispersion dosage form of amorphous xanthine derivative and enteric-coating polymer” (Kyowa Hakko Kogyo Co., Ltd., priority 1995, dated 2001).

Experiment: Comparative absorbability test, oral administration to beagles (pharmacokinetics)
Type: in vivo
Details: male beagle, oral with 20 ml water, 0-24 h, in terms of 3 mg/kg (doses given: Examples 6-8 3 mg/kg, crystal 6 mg/kg, Comparative Example 1 4 mg/kg)

The Area under the Plasma Concentration Curve, Intact Drug (in terms of 3 mg/kg): 69.9 ± 2.6 ng·h/mL
Structure (SMILES): CCCn1c(=O)c2[nH]c(C34CC5CC(CC3C5)C4)nc2n(CCC)c1=O [Compound No. 1]
